The source of these data is patent publication US9662338B2, “Formulations of viloxazine” (Supernus Pharmaceuticals, Inc., priority 2012, dated 2017).

The conditions of the assay: steady state plasma levels at both 150 mg and 300 mg total daily dose; IR capsules TID. As for the experimental part: A randomized, double blind, multicenter, placebo controlled clinical study was conducted to evaluate the efficacy of viloxazine in adults with ADHD. […] Subjects not tolerating the 300 mg/day dose were allowed at any time of the treatment phase to down titrate to 1 capsule TID for a total daily dose of 150 mg viloxazine base. […] Plasma samples were obtained up to six hours following dosing.

Structures are written as SMILES.

`CCOc1ccccc1OCC1CNCCO1` (racemic) [viloxazine, (RS)-2-[(2-ethoxyphenoxy)methyl]morpholine]: the “clinical efficacy in adults with ADHD” value is “demonstrated clinical efficacy”.
